The source of these data is patent US20110230493A1, “1-OXA-8-Azaspiro [4,5] Decabe-8-Carboxamide Compounds as FAAH Inhibitors” (Pfizer Inc., priority 2008, published 2011).

One assay concerns the target T1, human FAAH (Homo sapiens, UniProt O00519).
T1 construct: made in house; host or cells: E. coli
T1 sequence (O00519 1-579): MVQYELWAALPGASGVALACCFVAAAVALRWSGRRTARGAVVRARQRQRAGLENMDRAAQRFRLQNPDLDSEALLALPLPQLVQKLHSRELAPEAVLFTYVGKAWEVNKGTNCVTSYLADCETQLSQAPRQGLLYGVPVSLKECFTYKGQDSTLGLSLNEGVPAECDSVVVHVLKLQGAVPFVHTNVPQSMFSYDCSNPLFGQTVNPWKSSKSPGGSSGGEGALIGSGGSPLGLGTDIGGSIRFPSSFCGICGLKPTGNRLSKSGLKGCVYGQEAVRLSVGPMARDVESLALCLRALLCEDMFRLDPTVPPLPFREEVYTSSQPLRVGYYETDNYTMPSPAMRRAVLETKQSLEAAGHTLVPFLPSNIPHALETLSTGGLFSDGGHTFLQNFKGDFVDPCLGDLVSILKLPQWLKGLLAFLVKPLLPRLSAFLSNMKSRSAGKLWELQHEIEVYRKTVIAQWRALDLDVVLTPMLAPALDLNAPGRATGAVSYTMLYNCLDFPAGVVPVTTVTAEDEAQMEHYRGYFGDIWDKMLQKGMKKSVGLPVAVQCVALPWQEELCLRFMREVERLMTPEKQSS
Description: FAAH assay, human FAAH enzyme inactivation (kinact/Ki). Particulars: pH 7.4, in vitro, oleamide 50 μM, 30° C., read-out: hFAAH kinact/Ki. It counts as biochemical. Put shortly:
(§1)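 Oleamide hydrolysis by 1-4 nM purified E. coli-expressed FAAH (substrate 50 μM = Km) coupled to GDH/NADH, pH 7.4 phosphate, 7.5% DMSO and EtOH, 30° C; A340 followed 90 min. kobs from mono-exponential fits; kinact/Ki from kobs-versus-concentration slope, multiplied by two.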

A further assay addresses T2, rat FAAH (Rattus norvegicus, UniProt P97612).
T2 construct: made in house; host or cells: E. coli
T2 sequence (P97612 1-579): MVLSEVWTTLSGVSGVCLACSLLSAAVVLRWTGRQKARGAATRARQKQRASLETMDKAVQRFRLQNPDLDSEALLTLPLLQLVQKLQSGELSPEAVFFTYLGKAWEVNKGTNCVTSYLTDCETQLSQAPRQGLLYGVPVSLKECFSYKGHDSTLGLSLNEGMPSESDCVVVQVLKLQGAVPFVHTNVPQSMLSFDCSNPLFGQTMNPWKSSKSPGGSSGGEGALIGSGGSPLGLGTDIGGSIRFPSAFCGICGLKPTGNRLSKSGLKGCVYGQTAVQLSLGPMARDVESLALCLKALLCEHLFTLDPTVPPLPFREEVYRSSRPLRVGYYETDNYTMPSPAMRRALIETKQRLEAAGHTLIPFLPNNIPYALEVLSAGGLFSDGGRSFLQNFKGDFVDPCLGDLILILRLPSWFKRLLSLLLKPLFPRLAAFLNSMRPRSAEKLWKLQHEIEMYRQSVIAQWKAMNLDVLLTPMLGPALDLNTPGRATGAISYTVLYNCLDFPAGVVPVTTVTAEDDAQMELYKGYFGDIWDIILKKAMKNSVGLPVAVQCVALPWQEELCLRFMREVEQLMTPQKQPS
Description: FAAH assay, rat FAAH enzyme inactivation (kinact/Ki). The format is biochemical. To be noted: pH 7.4, in vitro, oleamide 50 μM, 30° C., read-out: rFAAH kinact/Ki. Put shortly:
as §1

Another assay deals with Male Sprague-Dawley Rats. Description: In vivo Complete Freund's Adjuvant (CFA) efficacy assay, inhibition of allodynia. On the set-up: species or system rat; key: (+) indicates the test compound was determined to be efficacious at 3 mpk, oral dosing; (−) indicates the test compound was determined to not be efficacious at 3 mpk, oral dosing. Particulars: 3 mpk, oral dosing; PWT four hours postdose; p < 0.05 vs vehicle group. The procedure, abridged:
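Adult male Sprague-Dawley rats weighing 200 g-250 g received an intra-plantar injection of 150 uL Complete Freund's Adjuvant into the left hindpaw to induce inflammation. On day 4 after injection, baseline paw withdrawal threshold was measured with Von Frey hairs using the Dixon Up and Down method. Threshold was measured again at four hours postdose. Treatment groups were compared by ANOVA with Dunnett's two-tailed test.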

Regarding `Cn1nnnc1NC(=O)N1CCC2(CC1)C[C@@H](c1ccc(OCc3ccc(F)c(F)c3)cc1)CO2` [Example 89, (3S)-3-{4-[(3,4-difluorobenzyl)oxy]phenyl}-N-(1-methyl-1H-tetrazol-5-yl)-1-oxa-8-azaspiro[4.5]decane-8-carboxamide], the figures for the kinact/KI on human FAAH and on rat FAAH were 29800 M⁻¹ s⁻¹ and 9640 M⁻¹ s⁻¹, respectively. Further, in the assay with Male Sprague-Dawley Rats, the “CFA Efficacy” value is “(+)”.

For the compound `Cn1nnnc1NC(=O)N1CCC2(CC1)C[C@H](c1ccc(OCc3ccc(F)cc3)cc1)CO2` [Example 90, (3R)-3-{4-[(4-fluorobenzyl)oxy]phenyl}-N-(1-methyl-1H-tetrazol-5-yl)-1-oxa-8-azaspiro[4.5]decane-8-carboxamide], the kinact/KI at human FAAH stood at 30800 M⁻¹ s⁻¹; on rat FAAH, 22600 M⁻¹ s⁻¹. Also, the “CFA Efficacy” value in the assay with Male Sprague-Dawley Rats is reported as “(+)”.

On to `Cn1nnnc1NC(=O)N1CCC2(CC1)C[C@@H](c1ccc(OCc3ccc(F)cc3)cc1)CO2` [Example 91, (3S)-3-{4-[(4-fluorobenzyl)oxy]phenyl}-N-(1-methyl-1H-tetrazol-5-yl)-1-oxa-8-azaspiro[4.5]decane-8-carboxamide], for which the kinact/KI on human FAAH is 21200 M⁻¹ s⁻¹; at rat FAAH, 7500 M⁻¹ s⁻¹. Also, the “CFA Efficacy” value in the assay with Male Sprague-Dawley Rats is on record as “(+)”.

For `Cn1nnnc1NC(=O)N1CCC2(CC1)C[C@H](c1ccc(OCc3ccc(C(F)(F)F)cn3)cc1)CO2` [Example 95, (3R)—N-(1-methyl-1H-tetrazol-5-yl)-3-(4-{[5-(trifluoromethyl)pyridin-2-yl]methoxy}phenyl)-1-oxa-8-azaspiro[4.5]decane-8-carboxamide], the kinact/KI stood at 21500 M⁻¹ s⁻¹ at human FAAH and 30300 M⁻¹ s⁻¹ at rat FAAH. The “CFA Efficacy” value with Male Sprague-Dawley Rats is listed as “(+)”.

Turning to `Cn1nnnc1NC(=O)N1CCC2(CC1)C[C@H](c1cccc(-c3ccc(F)cc3)c1)CO2` [Example 96, (3R)-3-(4′-fluorobiphenyl-3-yl)-N-(1-methyl-1H-tetrazol-5-yl)-1-oxa-8-azaspiro[4.5]decane-8-carboxamide], the kinact/KI at human FAAH turned out to be 26300 M⁻¹ s⁻¹; on rat FAAH, 2010 M⁻¹ s⁻¹. Besides, the “CFA Efficacy” value in the assay on Male Sprague-Dawley Rats is “(+)”.

Take `Cn1nnnc1NC(=O)N1CCC2(CC1)C[C@H](c1cccc(-c3ccc(OC(F)(F)F)cc3)c1)CO2` [Example 97, (3R)—N-(1-methyl-1H-tetrazol-5-yl)-3-[4′-(trifluoromethoxy)biphenyl-3-yl]-1-oxa-8-azaspiro[4.5]decane-8-carboxamide]: the kinact/KI at human FAAH was found to be 16900 M⁻¹ s⁻¹; at rat FAAH, 1830 M⁻¹ s⁻¹. Moreover, in the assay with Male Sprague-Dawley Rats, the “CFA Efficacy” value was “(+)”.

Regarding `Cn1nnnc1NC(=O)N1CCC2(CC1)C[C@H](c1cccc(-c3ccc(C(F)(F)F)cn3)c1)CO2` [Example 99, (3R)—N-(1-methyl-1H-tetrazol-5-yl)-3-{3-[5-(trifluoromethyl)pyridin-2-yl]phenyl}-1-oxa-8-azaspiro[4.5]decane-8-carboxamide], the kinact/KI at human FAAH came out at 9970 M⁻¹ s⁻¹; at rat FAAH, 2690 M⁻¹ s⁻¹. For the same compound, in the assay with Male Sprague-Dawley Rats, the “CFA Efficacy” value is “(+)”.
